From publication doi:10.1101/2022.09.08.507076v2 (biorxiv, 2022)

Key:
Format in all cases: biochemical
CYP2C9 = CYP2C9 (Homo sapiens, UniProt P11712); experiment: recombinant CYP inhibition, fluorescence
CYP1A2 = biological target: T1, CYP1A2 (Homo sapiens, UniProt P05177); experiment: recombinant CYP inhibition, fluorescence
T1 sequence (P05177 2-516): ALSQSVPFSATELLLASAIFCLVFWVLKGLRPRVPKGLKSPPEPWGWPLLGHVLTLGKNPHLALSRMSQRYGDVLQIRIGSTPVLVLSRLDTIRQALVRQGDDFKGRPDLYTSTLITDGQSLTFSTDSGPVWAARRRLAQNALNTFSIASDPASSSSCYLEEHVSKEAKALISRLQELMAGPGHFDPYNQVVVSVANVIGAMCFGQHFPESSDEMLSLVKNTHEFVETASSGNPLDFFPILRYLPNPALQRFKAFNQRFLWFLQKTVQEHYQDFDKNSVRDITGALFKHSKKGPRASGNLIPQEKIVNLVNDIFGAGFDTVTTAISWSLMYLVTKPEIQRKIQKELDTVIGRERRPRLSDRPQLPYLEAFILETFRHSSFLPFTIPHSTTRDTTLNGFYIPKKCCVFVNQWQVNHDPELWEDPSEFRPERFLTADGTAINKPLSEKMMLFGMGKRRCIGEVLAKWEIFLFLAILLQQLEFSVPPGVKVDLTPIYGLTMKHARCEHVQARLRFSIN

human topoisomerase IIα = human topoisomerase IIα (Homo sapiens, UniProt P11388); experiment: human topoisomerase IIα decatenation assay
Chain of human topoisomerase IIα (P11388 whole entry): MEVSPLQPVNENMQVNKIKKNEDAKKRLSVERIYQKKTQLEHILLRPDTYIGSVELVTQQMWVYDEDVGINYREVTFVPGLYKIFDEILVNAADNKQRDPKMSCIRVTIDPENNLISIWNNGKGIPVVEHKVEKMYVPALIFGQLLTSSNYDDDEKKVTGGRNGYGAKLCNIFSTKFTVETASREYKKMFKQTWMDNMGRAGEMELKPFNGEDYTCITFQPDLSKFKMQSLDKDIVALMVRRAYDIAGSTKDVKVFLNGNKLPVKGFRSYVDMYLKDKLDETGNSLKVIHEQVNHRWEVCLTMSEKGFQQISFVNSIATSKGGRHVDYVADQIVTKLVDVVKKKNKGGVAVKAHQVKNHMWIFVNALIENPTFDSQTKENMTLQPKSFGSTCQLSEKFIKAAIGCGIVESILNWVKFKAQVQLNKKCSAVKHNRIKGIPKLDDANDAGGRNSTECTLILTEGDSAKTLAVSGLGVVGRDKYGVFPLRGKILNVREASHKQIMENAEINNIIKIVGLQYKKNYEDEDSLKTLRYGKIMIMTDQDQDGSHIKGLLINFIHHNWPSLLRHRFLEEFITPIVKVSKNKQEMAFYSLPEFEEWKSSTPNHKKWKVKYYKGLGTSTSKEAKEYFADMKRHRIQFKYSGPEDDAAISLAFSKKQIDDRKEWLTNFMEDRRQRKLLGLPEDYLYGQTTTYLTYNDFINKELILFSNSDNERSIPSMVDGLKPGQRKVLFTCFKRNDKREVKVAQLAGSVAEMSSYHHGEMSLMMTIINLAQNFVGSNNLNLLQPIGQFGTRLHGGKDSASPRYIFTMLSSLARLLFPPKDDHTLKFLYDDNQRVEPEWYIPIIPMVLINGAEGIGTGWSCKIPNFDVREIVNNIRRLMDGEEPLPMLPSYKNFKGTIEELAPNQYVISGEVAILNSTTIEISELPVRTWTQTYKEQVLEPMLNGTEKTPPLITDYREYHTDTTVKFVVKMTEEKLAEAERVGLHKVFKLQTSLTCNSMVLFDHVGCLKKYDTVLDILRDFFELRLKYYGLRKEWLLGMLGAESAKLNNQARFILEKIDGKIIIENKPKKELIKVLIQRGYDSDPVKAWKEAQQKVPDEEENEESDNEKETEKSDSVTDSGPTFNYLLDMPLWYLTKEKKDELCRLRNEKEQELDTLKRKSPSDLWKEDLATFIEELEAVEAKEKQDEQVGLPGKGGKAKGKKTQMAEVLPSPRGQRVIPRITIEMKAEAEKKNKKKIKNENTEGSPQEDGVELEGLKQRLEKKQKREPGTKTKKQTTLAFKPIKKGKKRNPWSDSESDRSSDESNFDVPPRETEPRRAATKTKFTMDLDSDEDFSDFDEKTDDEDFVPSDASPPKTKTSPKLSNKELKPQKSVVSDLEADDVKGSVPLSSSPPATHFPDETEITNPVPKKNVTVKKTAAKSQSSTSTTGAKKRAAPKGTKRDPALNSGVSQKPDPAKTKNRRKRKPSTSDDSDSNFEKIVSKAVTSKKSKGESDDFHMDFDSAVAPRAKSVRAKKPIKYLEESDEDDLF

CYP3A4 = CYP3A4 (Homo sapiens, UniProt P08684); experiment: recombinant CYP inhibition, fluorescence
Chain of CYP3A4 (P08684 2-503): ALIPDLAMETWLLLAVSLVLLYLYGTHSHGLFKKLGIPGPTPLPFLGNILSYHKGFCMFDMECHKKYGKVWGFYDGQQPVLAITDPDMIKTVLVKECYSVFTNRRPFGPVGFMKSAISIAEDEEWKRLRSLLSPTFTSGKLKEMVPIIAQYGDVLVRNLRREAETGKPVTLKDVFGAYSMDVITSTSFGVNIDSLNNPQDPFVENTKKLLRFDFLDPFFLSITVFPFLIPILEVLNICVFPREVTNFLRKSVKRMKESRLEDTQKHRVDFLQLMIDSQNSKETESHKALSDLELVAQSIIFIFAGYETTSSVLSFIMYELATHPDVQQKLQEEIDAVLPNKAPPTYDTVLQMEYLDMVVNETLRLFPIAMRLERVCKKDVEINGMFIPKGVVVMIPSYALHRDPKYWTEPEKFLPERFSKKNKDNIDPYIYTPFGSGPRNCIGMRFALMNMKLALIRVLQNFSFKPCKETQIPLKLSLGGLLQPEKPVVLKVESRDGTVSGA

CYP2C19 = CYP2C19 (Homo sapiens, UniProt P33261); experiment: recombinant CYP inhibition, fluorescence
Chain of CYP2C19 (P33261 whole entry): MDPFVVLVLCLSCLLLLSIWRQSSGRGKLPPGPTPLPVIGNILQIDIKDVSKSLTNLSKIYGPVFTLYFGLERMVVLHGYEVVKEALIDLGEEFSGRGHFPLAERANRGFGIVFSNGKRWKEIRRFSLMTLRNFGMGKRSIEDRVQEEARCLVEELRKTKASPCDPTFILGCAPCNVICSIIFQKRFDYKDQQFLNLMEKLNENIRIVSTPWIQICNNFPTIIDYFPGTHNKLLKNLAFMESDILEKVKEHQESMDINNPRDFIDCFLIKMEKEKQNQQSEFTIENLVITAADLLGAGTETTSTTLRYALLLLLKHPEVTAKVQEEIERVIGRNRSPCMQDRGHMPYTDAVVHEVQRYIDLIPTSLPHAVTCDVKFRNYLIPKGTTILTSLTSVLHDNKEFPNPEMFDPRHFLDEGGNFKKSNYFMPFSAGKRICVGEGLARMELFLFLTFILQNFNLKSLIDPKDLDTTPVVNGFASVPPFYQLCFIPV

CYP2D6 = CYP2D6 (Homo sapiens, UniProt P10635); experiment: recombinant CYP inhibition, fluorescence
Chain of CYP2D6 (P10635 whole entry): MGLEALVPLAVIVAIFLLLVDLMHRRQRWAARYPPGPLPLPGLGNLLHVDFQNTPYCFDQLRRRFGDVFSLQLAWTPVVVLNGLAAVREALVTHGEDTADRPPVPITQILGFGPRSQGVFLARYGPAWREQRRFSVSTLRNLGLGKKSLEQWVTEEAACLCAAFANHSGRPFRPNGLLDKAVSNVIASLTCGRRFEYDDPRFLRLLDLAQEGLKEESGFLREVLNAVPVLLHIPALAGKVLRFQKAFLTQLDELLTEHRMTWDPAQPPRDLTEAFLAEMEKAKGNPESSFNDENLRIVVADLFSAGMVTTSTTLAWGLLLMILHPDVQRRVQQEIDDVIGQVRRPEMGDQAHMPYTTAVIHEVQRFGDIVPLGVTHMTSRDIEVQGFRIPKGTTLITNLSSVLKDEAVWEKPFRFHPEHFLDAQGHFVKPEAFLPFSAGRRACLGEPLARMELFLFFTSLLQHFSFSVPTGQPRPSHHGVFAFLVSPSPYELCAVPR

Chain of CYP2C9 (P11712 whole entry): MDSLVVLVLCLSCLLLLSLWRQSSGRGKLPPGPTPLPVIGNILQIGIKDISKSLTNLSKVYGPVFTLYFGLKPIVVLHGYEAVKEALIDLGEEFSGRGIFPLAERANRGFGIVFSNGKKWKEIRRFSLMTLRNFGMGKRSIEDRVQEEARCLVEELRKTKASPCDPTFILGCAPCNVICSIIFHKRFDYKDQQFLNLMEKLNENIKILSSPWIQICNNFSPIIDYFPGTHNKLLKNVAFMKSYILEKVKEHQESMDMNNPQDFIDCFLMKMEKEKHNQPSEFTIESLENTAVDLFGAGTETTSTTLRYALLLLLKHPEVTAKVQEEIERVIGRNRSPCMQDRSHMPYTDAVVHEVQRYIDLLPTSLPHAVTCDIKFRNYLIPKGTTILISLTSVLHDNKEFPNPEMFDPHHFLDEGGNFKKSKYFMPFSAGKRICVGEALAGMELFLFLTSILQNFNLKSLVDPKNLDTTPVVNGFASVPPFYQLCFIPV

| IC50 (CYP2C9) | IC50 (CYP1A2) | IC50 (human topoisomerase IIα) | IC50 (CYP3A4) | IC50 (CYP2C19) | IC50 (CYP2D6) | SMILES |
| --- | --- | --- | --- | --- | --- | --- |
| > 10 µM | > 10 µM | > 959 µM | > 10 µM | > 10 µM | > 10 µM | CCNC(=O)Nc1nc2c(F)c(-c3cnc(N4CCC(C(=O)O)CC4)nc3)cc(-c3ccccn3)c2s1 [RBx 10080758] |
| > 10 µM | > 10 µM | > 993 µM | > 10 µM | > 10 µM | > 10 µM | CCNC(=O)Nc1nc2c(F)c(-c3ccc(COP(=O)(O)O)nc3)cc(-c3ccccn3)c2s1 [RBx 10115912] |
